According to PubChem BioAssay (NCI):
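Assay format: 96-well plates, 48-hour exposure. At the GI50, growth is halved. TGI denotes the concentration required for complete inhibition of growth.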

Experiments:
Assay in all cases: DTP human tumour cell line panel, 48 h
BT-549 breast = system: BT-549 breast
NCI/ADR-RES ovarian = system: NCI/ADR-RES ovarian
COLO 205 colon = system: COLO 205 colon
HS 578T breast = system: HS 578T breast
HL-60(TB) leukemia = system: HL-60(TB) leukemia
MDA-MB-435 = system: MDA-MB-435
T-47D breast = system: T-47D breast

| Compound | GI50 (BT-549 breast) | TGI (BT-549 breast) | GI50 (NCI/ADR-RES ovarian) | TGI (NCI/ADR-RES ovarian) | GI50 (COLO 205 colon) | TGI (COLO 205 colon) | GI50 (HS 578T breast) | TGI (HS 578T breast) | GI50 (HL-60(TB) leukemia) | TGI (HL-60(TB) leukemia) | GI50 (MDA-MB-435) | TGI (MDA-MB-435) | GI50 (T-47D breast) | TGI (T-47D breast) |
| --- | --- | --- | --- | --- | --- | --- | --- | --- | --- | --- | --- | --- | --- | --- |
| CC1CCC(C#N)(NOC2=NCCN2)CC1 (stereo unspecified) | 31.3 µM | > 100 µM | > 100 µM | > 100 µM | 36 µM | > 100 µM | > 100 µM | > 100 µM | 34.5 µM | > 100 µM | 29.2 µM | > 100 µM | – | – |
| COc1cccc2cc(N(C)c3nc(C)nc4ccsc34)ccc12 | < 0.01 µM | 1.3 µM | < 0.01 µM | 11 µM | < 0.01 µM | – | < 0.01 µM | 22.4 µM | < 0.01 µM | < 0.01 µM | – | – | < 0.01 µM | > 100 µM |
| COc1ccc(NCc2c(O)ccc3ccccc23)cc1 | – | 43.5 µM | – | > 100 µM | – | 94.3 µM | – | > 100 µM | – | – | – | > 100 µM | – | 55.1 µM |
| COc1ccc(-c2cc3nccn3c(Nc3ncccc3C(N)=O)n2)cc1OC | 0.886 µM | > 100 µM | > 26.6 µM | > 100 µM | 1.21 µM | > 100 µM | > 31.8 µM | > 100 µM | 2.13 µM | 24.2 µM | – | – | > 100 µM | > 100 µM |
| C=C(C)C(=O)N1c2ccc(OC)cc2CC1C(=O)OCC (stereo unspecified) | – | > 100 µM | – | > 100 µM | – | > 100 µM | – | > 100 µM | – | – | – | – | – | > 100 µM |
| COc1cc(C(=O)/C=C/c2c(-c3cccs3)nc3ccccn23)cc(OC)c1OC | 1.86 µM | 5.55 µM | 1.89 µM | 6.92 µM | 1.77 µM | 3.2 µM | – | – | 2.01 µM | 5.01 µM | 2.49 µM | 9.52 µM | 1.72 µM | 6.79 µM |
| Oc1oc(-c2ccccc2)nc1/C=C1/C=NN=N1 | – | – | – | > 100 µM | – | > 100 µM | – | > 100 µM | – | > 100 µM | – | > 100 µM | – | > 100 µM |
| COC(=O)C1=C2CO[C@@H]3C[C@H]4C(C)(C)CCC[C@]4(C)C(=CC1)[C@]23C | 48.9 µM | > 100 µM | – | – | 28.2 µM | 71 µM | 47 µM | > 100 µM | – | – | 16.7 µM | 37.5 µM | 41.5 µM | > 100 µM |
| NCCCn1c2c(c3ccc([N+](=O)[O-])cc3c1=O)C(=O)c1cc(Cl)ccc1-2 | 0.0635 µM | 1.4 µM | < 0.01 µM | 0.292 µM | < 0.01 µM | 0.313 µM | 1.11 µM | 2.8 µM | < 0.01 µM | < 0.016 µM | – | – | < 0.01 µM | 1.2 µM |
